Source: EP4255430B1, “8-HYDROX[…] PROTEASE INHIBITORS FOR USE IN THE PREVENTION AND/OR TREATMENT OF A CORONA VIRUS DISEASE” (Univerza v Ljubljani, priority 2020, dated 2022)
pEC50: −log10 of the molar value.

System: SARS-CoV-2
Assay: High Content Assay: antiviral activity against SARS-CoV-2 in infected Huh7-hACE2 cells (Spike immunofluorescence, infection ratio)
Details: for pEC50: pre-treated conditions (compounds added 3 hours prior infection); for pEC50 / EC90 / EC50: Huh7-hACE2 cells, 0.1 MOI, 20 h; for activity against SARS-CoV-2 in Huh7-hACE2 cells (comparison between inhibitors): qualitative ranking; for EC90: read-out: EC90, the effective concentration capable to inhibit 90% of infection, follows the pre-treated values; for % of inhibition reached (maximal), based on infection ratio values: within tested concentration range, normalized to 50 µM hydroxychloroquine = 100%; for EC50: treatment condition not restated in the sentence (follows the pre-treated values)

Compound	pEC50	activity against SARS-CoV-2 in Huh7-hACE2 cells (comparison between inhibitors)	EC90 [µM]	% of inhibition reached (maximal), based on infection ratio values [%]	EC50
O=[N+]([O-])c1ccc(O)c2ncccc12 [Nitroxoline, 5-nitro-8-hydroxyquinoline]	5.72	highest activity	7.9	100	–
N#CCNCc1cc([N+](=O)[O-])c2cccnc2c1O [Compound 17, 2-{[(8-hydroxy-5-nitroquinoline-7-yl)methyl]amino}-acetonitrile]	5.72	highest activity	3.3	100	–
CCOC(=O)[C@H]1O[C@@H]1C(=O)N[C@@H](CC(C)C)C(=O)NCCC(C)C [Compound E64d, (2S,3S)-trans-Epoxysuccinyl-L-leucylamido-3-methylbutane ethyl ester]	–	–	–	< 100	–
CC1CCN(Cc2cc([N+](=O)[O-])c3cccnc3c2O)CC1 [Compound 3, 7-[(4-methylpiperidin-1yl)methyl]-5-nitroquinolin-8-ol]	–	stronger effect than CLIK 148, but weaker than Nitroxoline and Compound 17	10	100	–
CN(C)C(=O)[C@H](Cc1ccccc1)NC(=O)C1OC1C(=O)NCCc1ccccn1 (stereo in doubt) [CLIK 148, N-{L-3-trans-[2-(pyridin-2-yl)ethylcarbamoyl]-oxirane-2-carbonyl}-L-Phe dimethylamide]	–	–	–	< 100	higher concentrations
CC(C)C[C@H](NC(=O)[C@H]1O[C@@H]1C(=O)O)C(=O)NCCCCN=C(N)N (relative stereo) [Compound E64]	–	–	–	< 100	higher concentrations
